Patent publication US4902791A, “Nitrosourea derivatives, process for their preparation and medicaments containing them” (Sanofi S.A., priority 1983, dated 1990)

Legend:
Assay type in all cases: in vivo, mouse
L1210 U.S.A. = test: antitumor activity on leukemia L1210 U.S.A., products of examples 33-39, I.P.
Procedure: The experiments were always carried out on female mice which were specific pathogen-free (S. P. F.),
either of the line DBA/2JIco
or of the line B6 D2 F1/JIco (first generation hybrids between the lines C57BL/6 and DBA/2).
On the day of the graft (by convention day 0=D0) an inoculum of 1×10^5 tumor cells in a volume of 0.2 ml is administered to each mouse by the intraperitoneal route (I.P.).
This inoculum is prepared by diluting ascites fluid taken from the peritoneum of a donor female mouse in NCTC 109 medium (Eurobio Laboratories, Paris, France), counting of the cells in a MALASSEZ cell under a microscope and adjustment of the concentration to 5×10^5cells […] by means of the same medium.
The tumor line is an American strain of the line L1210.
After the tumor graft, the mice are distributed at random in cages of 5 animals. Subsequently, these cages containing 5 mice are themselves distributed at random into a control group (control) and groups treated with the I.C. products.
The doses of the products of the invention used in the different experiments are expressed in milligrams per kilogram of body weight.
The products to be injected were dissolved in isotonic sodium chloride solution.
2 protocols for treatment were used in the different experiments:
either a single injection on D1, by the intraperitoneal (I.P.) or intravenous (I.V.) route,
or 3 I.P. injections on D1, D5, D9.
In each experiment the animals of the control group received 1 or more injections, depending on the experimental protocol used, by the same route (I.P. or I.V.) of the same volume (0.2 ml/20 g) of the vehicle without the active principle (isotonic sodium chloride solution).
the number and percentage of the total of the mice surviving to D60,
the T/C×100 for the treated groups.
T representing the mean survival time of the mice in the treated group,
C representing the mean survival time of the mice in the control group (controls).

[1] = toxicological results, single I.P. dose, DL0 and DL50; details: mice
From the text: DL0, DL50, single I.P. dose administered to the aforementioned strains of mice.

colon carcinoma C38 = test: activity on colon carcinoma C38 implanted subcutaneously, I.P. days 2 and 9; details: I.P.
Procedure: A tumor fragment is implanted on day 0 in female B6 D2 F1 mice (19-22 g). The treatment with all of the products is administered by the I.P. route on days 2 and 9 (which is a delayed treatment). The weight of the tumors is calculated on day 20.

[2] = DBA2, I.P. D1, D5, D9, 3×10 mg/kg
[3] = DBA2, I.P. D1, D5, D9, 3×2.5 mg/kg

SMILES	Number of survivors at D60 (L1210 U.S.A.; [2])	T/C (L1210 U.S.A.; [2])	DL0 [1] [mg/kg]	Number of survivors on D60 (L1210 U.S.A.; DBA2, I.P. D1, 1×20 mg/kg)	Number of survivors on D60 (L1210 U.S.A.; [3])	T/C (L1210 U.S.A.; [3])	LD50 ([1]; mouse, in vivo, ip) [mg/kg]	Number of mice without tumor/total (colon carcinoma C38; 7.5 mg/kg/inj. days 2 and 9)	T/C (colon carcinoma C38; 7.5 mg/kg/inj. days 2 and 9) [%]	Weight of the tumor on day 20 (colon carcinoma C38; 7.5 mg/kg/inj. days 2 and 9) [mg]	Number of mice without tumor/total (colon carcinoma C38; 15 mg/kg/inj. days 2 and 9)	T/C (colon carcinoma C38; 15 mg/kg/inj. days 2 and 9) [%]	Weight of the tumor on day 20 (colon carcinoma C38; 15 mg/kg/inj. days 2 and 9) [mg]	dead mice (remarks) (colon carcinoma C38; 30 mg/kg/inj. days 2 and 9)
CO[C@H]1C[C@@H](NC(=O)N(CCCl)N=O)[C@H](O)[C@@H](C)O1 [IC. 85-1625, methyl 3-[3-(2-chloroethyl) 3-nitrosoureido] 2,3,6-trideoxyβ-L-arabino-hexopyranoside]	0/10	190	≥ 40											
CO[C@@H]1O[C@@H](C)C[C@@H](NC(=O)N(CCCl)N=O)[C@@H]1O [IC. 85-1626, methyl 3-[3-(2-chloroethyl) 3-nitrosoureido] 3,4,6-trideoxyα-L-xylo-hexopyranoside]	3/10	275	≥ 20	3/10	0/10	150	~40							
CO[C@H]1O[C@@H](C)C[C@@H](NC(=O)N(CCCl)N=O)[C@@H]1O [IC. 85-1627, methyl 3-[3-(2-chloroethyl) 3-nitrosoureido] 3,4,6-trideoxyβ-L-xylo-hexopyranoside]	6/10	> 600	≥ 40	3/10	0/10	141								
CN(C)S(=O)(=O)CCNC(=O)N(CCCl)N=O [TCNU, reference compound]								2/10	65	266	7/10	0	0	10
